Assay results as given in US20090004185A1, “AMINO-SUBSTITUTED QUINAZOLINE DERIVATIVES AS INHIBITORS OF BETA-CATENIN/TCF-4 PATHWAY AND CANCER TREATMENT AGENTS” (WYETH, priority 2007, published 2009).

These compounds were tested on β-catenin/Tcf-4 (assay: cells). Conditions: Homo sapiens, SW480, 24 h, Tcf 33.13 cells derived from SW480; 24 hours of incubation with compound; ratio Firefly/Renilla luciferase.
Type: cell-based
Excerpt: Background cell line: SW480 colorectal carcinoma DNA constructs:
1) Tcf-4-Luc: Tcf-4 binding sites driving Firefly Luciferase in the pGL3 vector—to measure the activity of β-catenin/Tcf-4;
(§1) 2) SV40-Luc: SV40 binding site driving Firefly Luciferase in the pGL3 vector—as a control for non-specific inhibitors; and
(§2) 3) SV40-R-Luc: SV40 binding site driving Renilla Luciferase in the pGL3 vector—as an internal control for cell number and toxicity.
This screen uses 3 cell lines derived from SW480 and selected to contain the above luciferase reporters integrated into their chromosomes as follows: […]
(§3) Cells: Tcf22C11 and SV5A8 were grown in the presence of 500 μg/ml G418 and Tcf 33.13 was grown in the presence of 500 μg/ml G418+125 μg/ml Zeocin to maintain the integrated reporters. The cells were trypsinized and plated at 1×10^4 cells/well in opaque 96 well plates.
The compounds were diluted as follows: The compounds were stored frozen in dimethyl sulfoxide (DMSO) at […]. Compounds were initially titrated in DMSO to make a 1000×DMSO stock solution. Compounds were then diluted 1:25 into media/DMSO (DMEM+10% FBS+9% DMSO). Using the Biomek Multimek, the diluted compounds were mixed well and immediately added to the plated cells in a 1:40 dilution. The final concentration of DMSO in the assay plates was 0.316% DMSO.
(§4) Assay Readout: The luciferase signal was detected using a luciferase detection kit from Promega. Until December 2003, Promega's Dual-Luciferase® Reporter (DLR™) Assay System was used to detect luciferase activity. Briefly, after 24 hours of incubation with compound, culture media was removed by aspiration and 20 ul of passive lysis buffer (Promega) per well was added. The plates were shaken for 15 min. Firefly substrate was then added and the resulting luminescence was immediately read on a CCD camera imaging device or a luminometer. After quantifying the firefly luminescence, the reaction was quenched, and the Renilla luciferase reaction was initiated simultaneously by adding Stop & Glo® Reagent to the same sample. Renilla luciferase was then quantified using the CCD camera or luminometer.
Promega's Dual-Glo™ Luciferase Assay System can be used for luciferase detection. […] Briefly, after 24 hours of incubation with compound, culture media was removed by aspiration and 75 ul of fresh medium was added. Add 75 ul of Dual-Glo Luciferase Reagent (Promega) to each well and mix by shaking for 10 minutes on a plate shaker. Then, measure the firefly luminescence on a CCD camera imaging device or a luminometer. After quantifying the firefly luminescence, add 75 ul of Dual-Glo Stop & Glo Reagent (Promega) to each well and mix for 10 minutes. Renilla luciferase was then quantified using the CCD camera or luminometer.
(§5) This assay was meant to confirm primary leads and determine IC50s. Compounds were tested at titrated dilutions. The raw data for this assay was reported in protocol 2463-B. Protocol 2463-C contains the IC50 calculations based on the raw data. The data calculations were done as follows:
(§6) The data was expressed as % of control for both Firefly and Renilla Luciferase. The ratio of FF/Renilla (F/R) was then calculated and averaged between duplicate plates. The data was then plotted using LSW Data Analysis in Microsoft Excel. IC50s were determined by plotting the data in the LSW Data Analysis program using model 33. The IC50s (nM) for all three cell lines were reported.
With `CNc1nc(NCc2ccc(NC(=O)c3cc(F)ccc3C)cc2)c2ccccc2n1` [Example 1, 5-fluoro-2-methyl-N-[4-({[2-(methylamino)quinazolin-4-yl]amino}methyl)phenyl]benzamide] the IC50 was over 6020 nM.
`CNc1nc(NCc2ccc(NC(=O)COCc3ccccc3)cc2)c2ccccc2n1` [Example 2, 2-(benzyloxy)-N-[4-({[2-(methylamino)quinazolin-4-yl]amino}methyl)phenyl]acetamide] gave an IC50 of over 2920 nM.

Same assay, conditions: Homo sapiens, Tcf22C11, 24 h, Tcf 22C11 cells derived from SW480; 24 hours of incubation with compound; ratio Firefly/Renilla luciferase
`CNc1nc(NCc2ccc(NC(=O)c3cc(F)ccc3C)cc2)c2ccccc2n1` [Example 1, 5-fluoro-2-methyl-N-[4-({[2-(methylamino)quinazolin-4-yl]amino}methyl)phenyl]benzamide] was tested, and the IC50 was over 6020 nM.
For `CNc1nc(NCc2ccc(NC(=O)COCc3ccccc3)cc2)c2ccccc2n1` [Example 2, 2-(benzyloxy)-N-[4-({[2-(methylamino)quinazolin-4-yl]amino}methyl)phenyl]acetamide], the IC50 was over 2920 nM.

Each compound was assayed on SV40-Luc (assay: SV40-Luc control luciferase reporter assay, SV 5A8 cell line (SV40-Luc and SV40-R-Luc), control for non-specific inhibitors). Conditions: Homo sapiens, SV5A8, 24 h, SV 5A8 cells derived from SW480; 24 hours of incubation with compound; ratio Firefly/Renilla luciferase.
Type: cell-based, human
Excerpt: Background cell line: SW480 colorectal carcinoma DNA constructs: […]
as §1, §2
This screen uses 3 cell lines derived from SW480 and selected to contain the above luciferase reporters integrated into their chromosomes as follows:
SV 5A8—SV40-Luc and SV40-R-Luc
as §3
Compounds: 20-24 hours after cell plating, compounds were added at titrated concentrations between […]. The compounds were diluted as follows: The compounds were stored frozen in dimethyl sulfoxide (DMSO) at […]. Compounds were initially titrated in DMSO to make a 1000×DMSO stock solution. Compounds were then diluted 1:25 into media/DMSO (DMEM+10% FBS+9% DMSO). Using the Biomek Multimek, the diluted compounds were mixed well and immediately added to the plated cells in a 1:40 dilution. The final concentration of DMSO in the assay plates was 0.316% DMSO.
as §4
Promega's Dual-Glo™ Luciferase Assay System can be used for luciferase detection. It was similar to the DLR Assay, however, unlike the DLR which has to be read immediately due to decaying signal, the signal in the Dual-Glo™ Luciferase Assay was stable for up to 2 hours. Briefly, after 24 hours of incubation with compound, culture media was removed by aspiration and 75 ul of fresh medium was added. Add 75 ul of Dual-Glo Luciferase Reagent (Promega) to each well and mix by shaking for 10 minutes on a plate shaker. Then, measure the firefly luminescence on a CCD camera imaging device or a luminometer. After quantifying the firefly luminescence, add 75 ul of Dual-Glo Stop & Glo Reagent (Promega) to each well and mix for 10 minutes. Renilla luciferase was then quantified using the CCD camera or luminometer.
as §5, §6
`CN(C)Cc1ccc2c(NCc3ccc(NC(=O)c4ccc(F)cc4)cc3)nc(N(C)C)nc2c1` [Example 91, N-{4-[({2-(dimethylamino)-7-[(dimethylamino)methyl]quinazolin-4-yl}amino)methyl]phenyl}-4-fluorobenzamide] gave an IC50 of over 9170 nM.
`CN(C)c1nc(NCc2ccc(NC(=O)c3ccc(F)cc3)cc2)c2ccc(CO)cc2n1` [Example 93, N-[4-({[2-(dimethylamino)-7-(hydroxymethyl)quinazolin-4-yl]amino}methyl)phenyl]-4-fluorobenzamide] showed an IC50 of over 10400 nM.
In the case of `CNc1nc(NCc2ccc(NC(=O)c3ccc(Cl)cc3)cc2)c2cc(C)ccc2n1` [Example 18, 4-chloro-N-[4-({[6-methyl-2-(methylamino)quinazolin-4-yl]amino}methyl)phenyl]benzamide], the IC50 is reported as over 5790 nM.
`CNc1nc(NCc2ccc(NC(=O)c3ccnc(Cl)c3)cc2)c2ccccc2n1` [Example 4, 2-chloro-N-[4-({[2-(methylamino)quinazolin-4-yl]amino}methyl)phenyl]isonicotinamide] was tested, and the IC50 was over 2980 nM.
Work on `Cc1ccc2c(NCc3ccc(NC(=O)c4ccc(F)cc4)cc3)nc(N3CCC3)nc2c1` [Example 202, N-(4-{[(2-azetidin-1-yl-7-methylquinazolin-4-yl)amino]methyl}phenyl)-4-fluorobenzamide] yielded an IC50 of over 2830 nM.
`CNc1nc(NCc2ccc(NC(=O)c3ccc(F)cc3)cc2)c2ccccc2n1` [Example 13, 4-fluoro-N-[4-({[2-(methylamino)quinazolin-4-yl]amino}methyl)phenyl]benzamide] was tested, and the IC50 was over 778 nM.
Compound `CNc1nc(NCc2ccc(NC(=O)c3ccc(F)cc3)cc2)c2c(C)cccc2n1` [Example 192, 4-fluoro-N-[4-({[5-methyl-2-(methylamino)quinazolin-4-yl]amino}methyl)phenyl]benzamide] has an IC50 of over 3010 nM.
`Cc1ccc2c(NCc3ccc(NC(=O)c4ccc(F)cc4)cc3)nc(N(C)C)nc2c1` [Example 199, N-[4-({[2-(dimethylamino)-7-methylquinazolin-4-yl]amino}methyl)phenyl]-4-fluorobenzamide] was tested, and the IC50 was over 2910 nM.
Compound `CNc1nc(NCc2ccc(NC(=O)c3ccc(Cl)nc3)cc2)c2ccc(C)cc2n1` [Example 264, 6-chloro-N-[4-({[7-methyl-2-(methylamino)quinazolin-4-yl]amino}methyl)phenyl]nicotinamide] has an IC50 of over 1440 nM.
In the case of `Cc1ccc2c(NCc3ccc(NC(=O)c4ccc(F)cc4)cc3)nc(N3CCNC(C)(C)C3)nc2c1` [Example 236, N-[4-({[2-(3,3-dimethylpiperazin-1-yl)-7-methylquinazolin-4-yl]amino}methyl)phenyl]-4-fluorobenzamide], the IC50 is reported as over 5010 nM.
`C=Cc1ccc2c(NCc3ccc(NC(=O)c4ccc(F)cc4)cc3)nc(N(C)C)nc2c1` [Example 87, N-[4-({[2-(dimethylamino)-7-vinylquinazolin-4-yl]amino}methyl)phenyl]-4-fluorobenzamide] showed an IC50 of over 20900 nM.
In the case of `CC(O)c1ccc2c(NCc3ccc(NC(=O)c4ccc(F)cc4)cc3)nc(N(C)C)nc2c1` (stereo not drawn) [Example 95, N-[4-({[2-(dimethylamino)-7-(1-hydroxyethyl)quinazolin-4-yl]amino}methyl)phenyl]-4-fluorobenzamide], the IC50 is reported as over 20200 nM.
Work on `CNc1nc(NCc2ccc(NC(=O)c3ccc(Cl)cc3)cc2)c2c(C)cccc2n1` [Example 193, 4-chloro-N-[4-({[5-methyl-2-(methylamino)quinazolin-4-yl]amino}methyl)phenyl]benzamide] yielded an IC50 of over 2890 nM.
`CNc1nc(NCc2ccc(NC(=O)c3ccc(F)cc3)cc2)c2cc(C)ccc2n1` [Example 24, 4-fluoro-N-[4-({[6-methyl-2-(methylamino)quinazolin-4-yl]amino}methyl)phenyl]benzamide] showed an IC50 of over 602 nM.
With `CNc1nc(NCc2ccc(NC(=O)c3ccc(F)cc3)cc2)c2cccc(C)c2n1` [Example 190, 4-fluoro-N-[4-({[8-methyl-2-(methylamino)quinazolin-4-yl]amino}methyl)phenyl]benzamide] the IC50 was over 3010 nM.
`CNc1nc(NCc2ccc(NC(=O)c3ccc(C(F)(F)F)cc3)cc2)c2ccccc2n1` [Example 20, N-[4-({[2-(methylamino)quinazolin-4-yl]amino}methyl)phenyl]-4-(trifluoromethyl)benzamide] was tested, and the IC50 was over 1380 nM.
`CN(C)c1nc(NCc2ccc(NC(=O)c3ccc(F)cc3)cc2)c2ccc(C#N)cc2n1` [Example 89, N-[4-({[7-cyano-2-(dimethylamino)quinazolin-4-yl]amino}methyl)phenyl]-4-fluorobenzamide] was tested, and the IC50 was over 21000 nM.
With `Cc1ccc2c(NCc3ccc(NC(=O)c4ccc(F)cc4)cc3)nc(N3CCOCC3)nc2c1` [Example 207, 4-fluoro-N-(4-{[(7-methyl-2-morpholin-4-ylquinazolin-4-yl)amino]methyl}phenyl)benzamide] the IC50 was over 10600 nM.
`CNc1nc(NCc2ccc(NC(=O)c3ccc(C#N)cc3)cc2)c2ccccc2n1` [Example 21, 4-cyano-N-[4-({[2-(methylamino)quinazolin-4-yl]amino}methyl)phenyl]benzamide] gave an IC50 of over 12200 nM.
For `CNc1nc(NCc2ccc(NC(=O)c3ccc(Cl)nc3)cc2)c2cccc(C)c2n1` [Example 183, 6-chloro-N-[4-({[8-methyl-2-(methylamino)quinazolin-4-yl]amino}methyl)phenyl]nicotinamide], the IC50 was over 2890 nM.
`CNc1nc(NCc2ccc(NC(=O)c3ccc(Cl)cc3)cc2)c2cccc(C)c2n1` [Example 191, 4-chloro-N-[4-({[8-methyl-2-(methylamino)quinazolin-4-yl]amino}methyl)phenyl]benzamide] gave an IC50 of over 1450 nM.
With `CN(C)c1nc(NCc2ccc(NC(=O)c3ccc(F)cc3)cc2)c2ccc(C=O)cc2n1` [Example 92, N-[4-({[2-(dimethylamino)-7-formylquinazolin-4-yl]amino}methyl)phenyl]-4-fluorobenzamide] the IC50 was over 17900 nM.
With `Cc1ccc2c(NCc3ccc(NC(=O)c4ccc(F)cc4)cc3)nc(N3CCCC3)nc2c1` [Example 209, 4-fluoro-N-(4-{[(7-methyl-2-pyrrolidin-1-ylquinazolin-4-yl)amino]methyl}phenyl)benzamide] the IC50 was over 2740 nM.
